29 molecules from US9839629B2, “Inhibitors of the renal outer medullary potassium channel” (Merck Sharp & Dohme Corp., priority 2013, dated 2017) can be followed below.

SMILES strings stand for the structures. pIC50: −log10 of the molar value.

This assay has as its target T1, ROMK (Kir1.1) channel (Homo sapiens, UniProt P48048).
T1 sequence (P48048 1-391): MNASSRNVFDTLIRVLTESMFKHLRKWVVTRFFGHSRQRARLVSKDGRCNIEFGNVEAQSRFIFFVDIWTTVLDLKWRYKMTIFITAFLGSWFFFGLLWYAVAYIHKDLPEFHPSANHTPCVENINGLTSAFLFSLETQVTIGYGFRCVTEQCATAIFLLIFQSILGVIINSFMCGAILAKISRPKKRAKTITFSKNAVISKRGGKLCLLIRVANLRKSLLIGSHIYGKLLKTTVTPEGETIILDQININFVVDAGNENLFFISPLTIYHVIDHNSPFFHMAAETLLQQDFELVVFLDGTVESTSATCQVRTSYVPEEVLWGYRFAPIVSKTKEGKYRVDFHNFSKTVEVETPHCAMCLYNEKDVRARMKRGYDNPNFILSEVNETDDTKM
The assay is described as follows: Thallium Flux Assay. The assay is classed as cell-based. The method, then: A Thallium Flux Assay was performed on each of the final product compounds in the Examples. When the final product of an Example was an HCl salt, the salt was run in the Assay. This assay has been described previously; see, e.g., PCT Published Application WO 2013/062900.
Turning to `Cc1c([C@@H](O)CN2CCC3(CC2)CCN(C2=C(Cl)C(=O)OC2)CC3)ccc2c1COC2=O` [Example 40, (R)-5-(2-(9-(4-chloro-5-oxo-2,5-dihydrofuran-3-yl)-3,9-diazaspiro[5.5]undecan-3-yl)-1-hydroxyethyl)-4-methylisobenzofuran-1(3H)-one], the pIC50 is 8.30. Regarding `Cc1nc(-n2cnnn2)ccc1[C@@H](O)CN1CCC2(CC1)CCN(C1=C(F)C(=O)OC1)CC2` [Example 39, (R)-3-fluoro-4-(9-(2-hydroxy-2-(2-methyl-6-(1H-tetrazol-1-yl)pyridin-3-yl)ethyl)-3,9-diazaspiro[5.5]undecan-3-yl)furan-2(5H)-one], the pIC50 was 7.96. In turn, `CCc1c(N2CCC3(CCN(C[C@H](O)c4ccc5c(c4C)COC5=O)CC3)CC2)c(=O)c1=O` [Example 79, (R)-3-ethyl-4-(9-(2-hydroxy-2-(4-methyl-1-oxo-1,3-dihydroisobenzofuran-5-yl)ethyl)-3,9-diazaspiro[5.5]undecan-3-yl)cyclobut-3-ene-1,2-dione] had a pIC50 of 6.96. `O=C1C=C(N2CCC3(CCN(C[C@@H](O)c4ccc(-n5cnnn5)cc4F)CC3)CC2)CO1` [Example 23, (S)-4-(9-(2-(2-fluoro-4-(1H-tetrazol-1-yl)phenyl)-2-hydroxyethyl)-3,9-diazaspiro[5.5]undecan-3-yl)furan-2(5H)-one]: the pIC50 is 7.55.

For the molecule `CC1=C(N2CCC3(CCN(C[C@@H](O)c4ccccc4-n4cnnn4)CC3)CC2)COC1=O` [Example 69, (S)-4-(9-(2-(2-(1H-tetrazol-1-yl)phenyl)-2-hydroxyethyl)-3,9-diazaspiro[5.5]undecan-3-yl)-3-methylfuran-2(5H)-one], the pIC50 is 6.20. `O=C1C=C(N2CCC3(CCN(C(=O)Cc4cc(F)c(-n5cnnn5)cc4F)CC3)CC2)CO1` [Example 104, 4-(9-{[2,5-difluoro-4-(1H-tetrazol-1-yl)phenyl]acetyl}-3,9-diazaspiro[5.5]undec-3-yl)furan-2(5H)-one] gave a pIC50 of 6.94. Under `C[C@H]1Cc2cc([C@H](O)CN3CCC4(CC3)CCN(C3=CC(=O)OC3)CC4)ccc2C(=O)O1` [Example 12, (S)-6-((S)-1-hydroxy-2-(9-(5-oxo-2,5-dihydrofuran-3-yl)-3,9-diazaspiro[5.5]undecan-3-yl)ethyl)-3-methylisochroman-1-one] stands 6.16; under `CC1=C(N2CCC3(CCN(C[C@@H](O)c4cccc(-n5cnnn5)c4)CC3)CC2)COC1=O` [Example 60, (S)-4-(9-(2-(3-(1H-tetrazol-1-yl)phenyl)-2-hydroxyethyl)-3,9-diazaspiro[5.5]undecan-3-yl)-3-methylfuran-2(5H)-one], 7.49; under `CC1=C(N2CCC3(CCN(C[C@H](O)c4ccc5c(c4C)COC5=O)CC3)[C@@H](F)C2)COC1=O` [Example 34, 5-((R)-2-((R)-7-fluoro-9-(4-methyl-5-oxo-2,5-dihydrofuran-3-yl)-3,9-diazaspiro[5.5]undecan-3-yl)-1-hydroxyethyl)-4-methylisobenzofuran-1(3H)-one], 6.56. For the molecule `O=C1C=C(N2CCC3(CCN(C[C@H](O)c4ccc(-n5cnnn5)nn4)CC3)CC2)CO1` [Example 16, (S)-4-(9-(2-(6-(1H-tetrazol-1-yl)pyridazin-3-yl)-2-hydroxyethyl)-3,9-diazaspiro[5.5]undecan-3-yl)furan-2(5H)-one], the pIC50 is 7.39.

With `Cc1c([C@@H](O)CN2CCC3(CC2)CCN(C2=CC(=O)OC2)C(C)C3)ccc2c1COC2=O` (single isomer, unassigned) [Example 32], the pIC50 was 7.31. The result for `CC1=C(N2CCC3(CCN(C[C@@H](O)c4ccnc(-n5cnnn5)c4)CC3)CC2)COC1=O` [Example 62, (S)-4-(9-(2-(2-(1H-tetrazol-1-yl)pyridin-4-yl)-2-hydroxyethyl)-3,9-diazaspiro[5.5]undecan-3-yl)-3-methylfuran-2(5H)-one] reads 7.41. The result for `Cc1cc(-n2cnnn2)cnc1[C@@H](O)CN1CCC2(CC1)CCN(C1=CC(=O)OC1)CC2` [Example 20, (S)-4-(9-(2-hydroxy-2-(3-methyl-5-(1H-tetrazol-1-yl)pyridin-2-yl)ethyl)-3,9-diazaspiro[5.5]undecan-3-yl)furan-2(5H)-one] reads 7.01. `CC1=C(N2CCC3(CCN(C[C@@H](O)c4ccc(-n5cnnn5)cc4)CC3)CC2)COC1=O` [Example 50, (S)-4-(9-(2-(4-(1H-tetrazol-1-yl)phenyl)-2-hydroxyethyl)-3,9-diazaspiro[5.5]undecan-3-yl)-3-methylfuran-2(5H)-one] gave a pIC50 of 7.80. The result for `Cc1c(N2CCC3(CCN(C[C@H](O)c4ccc(-n5cnnn5)nc4)CC3)CC2)c(=O)c1=O` [Example 81, (R)-3-(9-(2-(6-(1H-tetrazol-1-yl)pyridin-3-yl)-2-hydroxyethyl)-3,9-diazaspiro[5.5]undecan-3-yl)-4-methylcyclobut-3-ene-1,2-dione] reads 7.82. Consider `Cc1c(CCN2CCC3(CC2)CCN(C2=CC(=O)OC2)CC3)ccc2c1COC2=O` [Example 2, 4-methyl-5-(2-(9-(5-oxo-2,5-dihydrofuran-3-yl)-3,9-diazaspiro[5.5]undecan-3-yl)ethyl)isobenzofuran-1(3H)-one], for which the pIC50 was 7.51. The result for `CC1=C(N2CCC3(CCN(C[C@H](O)c4ccc5c(c4C)COC5=O)CC3)CC2)COC1=O` [Example 7, (R)-5-(1-hydroxy-2-(9-(4-methyl-5-oxo-2,5-dihydrofuran-3-yl)-3,9-diazaspiro[5.5]undecan-3-yl)ethyl)-4-methylisobenzofuran-1(3H)-one] reads 7.89; that for `CC1=C(N2CCC3(CCN(C[C@H](O)c4cc(-n5cnnn5)ccn4)CC3)CC2)COC1=O` [Example 67, (S)-4-(9-(2-(4-(1H-tetrazol-1-yl)pyridin-2-yl)-2-hydroxyethyl)-3,9-diazaspiro[5.5]undecan-3-yl)-3-methylfuran-2(5H)-one], 6.52.

On to `Cc1c([C@@H](O)CN2CCC3(CC2)CCN(C2=CC(=O)OC2C)CC3)ccc2c1COC2=O` (stereo partly drawn) [Example 37, 5-((1R)-1-hydroxy-2-(9-(2-methyl-5-oxo-2,5-dihydrofuran-3-yl)-3,9-diazaspiro[5.5]undecan-3-yl)ethyl)-4-methylisobenzofuran-1(3H)-one], for which the pIC50 was 6.85.

With `CC1=C(N2CCC3(CCN(CC(O)c4ccc(Br)cc4)CC3)CC2)COC1=O` (centres unmarked) [Example 36, 4-(9-(2-(4-bromophenyl)-2-hydroxyethyl)-3,9-diazaspiro[5.5]undecan-3-yl)-3-methylfuran-2(5H)-one], the pIC50 was 6.94. Under `O=C1C=C(N2CCC3(CCN(CC(O)c4cnc(-n5cnnn5)nc4)CC3)CC2)CO1` (centres unmarked) [Example 15, 4-(9-(2-(2-(1H-tetrazol-1-yl)pyrimidin-5-yl)-2-hydroxyethyl)-3,9-diazaspiro[5.5]undecan-3-yl)furan-2(5H)-one] stands 6.35; under `CC1=C(N2CCC3(CCN(C[C@H](O)c4ccc5c(c4C)COC5=O)CC3)[C@@H](O)C2)COC1=O` [Example 94, 5-{(1R)-1-hydroxy-2-[(7R)-7-hydroxy-9-(4-methyl-5-oxo-2,5-dihydrofuran-3-yl)-3,9-diazaspiro[5.5]undec-3-yl]ethyl}-4-methyl-2-benzofuran-1(3H)-one], 6.19.

The molecule `CC1=C(N2CCC3(CCN(C[C@@H](O)c4ccc(-n5cnnn5)cc4F)CC3)CC2)COC1=O` [Example 54, (S)-4-(9-(2-(2-fluoro-4-(1H-tetrazol-1-yl)phenyl)-2-hydroxyethyl)-3,9-diazaspiro[5.5]undecan-3-yl)-3-methylfuran-2(5H)-one] had a pIC50 of 8.10. The result for `CO[C@@H](CN1CCC2(CC1)CCN(C1=CC(=O)OC1)CC2)c1ccc2c(c1C)COC2=O` [Example 91, (R)-5-(1-methoxy-2-(9-(5-oxo-2,5-dihydrofuran-3-yl)-3,9-diazaspiro[5.5]undecan-3-yl)ethyl)-4-methylisobenzofuran-1(3H)-one] reads 6.70; that for `C[C@H]1Cc2cc([C@@H](O)CN3CCC4(CC3)CCN(C3=CC(=O)OC3)CC4)ccc2C(=O)O1` [Example 11, (S)-6-((R)-1-hydroxy-2-(9-(5-oxo-2,5-dihydrofuran-3-yl)-3,9-diazaspiro[5.5]undecan-3-yl)ethyl)-3-methylisochroman-1-one], 6.74; that for `Cc1c([C@@H](O)CN2CCC3(CC2)CCN(c2c(C4CC4)c(=O)c2=O)CC3)ccc2c1COC2=O` [Example 80, (R)-3-cyclopropyl-4-(9-(2-hydroxy-2-(4-methyl-1-oxo-1,3-dihydroisobenzofuran-5-yl)ethyl)-3,9-diazaspiro[5.5]undecan-3-yl)cyclobut-3-ene-1,2-dione], 6.85.

Regarding `O=C1C=C(N2CCC3(CCN(C(=O)Cc4cnc(-n5cnnn5)c(F)c4)CC3)CC2)CO1` [Example 101, 4-(9-{[5-fluoro-6-(1H-tetrazol-1-yl)pyridin-3-yl]acetyl}-3,9-diazaspiro[5.5]undec-3-yl)furan-2(5H)-one], the negative-log IC50 (pIC50) is 6.61. In turn, `Cc1cc(-n2cnnn2)cnc1C(O)CN1CCC2(CC1)CCN(C1=CC(=O)OC1)CC2` (stereo in doubt) [Example 21, (S)-4-(9-(2-hydroxy-2-(3-methyl-5-(1H-tetrazol-1-yl)pyridin-2-yl)ethyl)-3,9-diazaspiro[5.5]undecan-3-yl)furan-2(5H)-one] had a pIC50 of 6.74. Molecule `CC1=C(N2CCC3(CCN(C[C@@H](O)c4cccc(-n5cnnn5)n4)CC3)CC2)COC1=O` [Example 6B, (R)-4-(9-(2-(6-(1H-tetrazol-1-yl)pyridin-2-yl)-2-hydroxyethyl)-3,9-diazaspiro[5.5]undecan-3-yl)-3-methylfuran-2(5H)-one] gave a pIC50 of 7.70.

The pIC50 is the negative decadic logarithm of the IC50, by convention in mol/L. Read a high pIC50 as a small IC50.
